# PMC8326117 (International Journal of Biological Sciences, 2021)
# Entries after “also recorded” stand apart in the source; their conditions may differ. No end group written: not given here.
# Tests used:
# [1] = target: ACE2 (Homo sapiens, UniProt Q9BYF1); conditions: cited from earlier work
# [2] = test system: SARS-CoV-2 S-protein; assay type: binding
# [3] = test system: SARS-CoV-2 Spike-pseudovirus; conditions: in vivo
# [4] = target: S-protein RBD (Severe acute respiratory syndrome coronavirus 2, UniProt P0DTC2); assay: LSPR assay, binding to S-protein RBD; set-up: species or system SARS-CoV-2; conditions: pH 7.4
# Method: LSPR analysis. Localized Surface Plasmon Resonance (LSPR) analysis was conducted with OpenSPRTM instrument (Nicoyalife, Canada). The COOH sensor chip was firstly installed on the OpenSPRTM instrument in accordance with the standard procedure. Run the buffer at the maximum flow rate (150 μL/min) and exhaust the bubble after reaching the signal baseline. Slow down the flow rate of buffer solution (PBS, pH 7.4) to 20 µL/min, then load 200 µL EDC/NHS (20 μL /min, 4min) solution to activate COOH sensor chips. […] The injection port was rinsed with buffer solution and emptied with air. Fill with 200 µL blocking solution (20 µL/min, 4 min), wash the sample ring with buffer solution and empty it with air. Observe baseline for 5 min to ensure stability. Next, the selected peptides were diluted into a series of solutions with different concentration, which were then injected into the chip with the concentration from low to high. The kinetic parameters of the binding reactions were calculated and analyzed by using TraceDrawer software (Ridgeview Instruments AB, Sweden).
# [5] = test system: SARS-CoV-2 Spike-pseudovirus; conditions: in vivo; remark: listed apart in the source
# [6] = test system: SARS-CoV-2 Spike-pseudovirus; conditions: in vivo; remark: listed apart in the source
# [7] = test system: HEK293T/hACE2 cells
# [8] = mouse, in vivo
# ACE2, sequence (Q9BYF1 18-805): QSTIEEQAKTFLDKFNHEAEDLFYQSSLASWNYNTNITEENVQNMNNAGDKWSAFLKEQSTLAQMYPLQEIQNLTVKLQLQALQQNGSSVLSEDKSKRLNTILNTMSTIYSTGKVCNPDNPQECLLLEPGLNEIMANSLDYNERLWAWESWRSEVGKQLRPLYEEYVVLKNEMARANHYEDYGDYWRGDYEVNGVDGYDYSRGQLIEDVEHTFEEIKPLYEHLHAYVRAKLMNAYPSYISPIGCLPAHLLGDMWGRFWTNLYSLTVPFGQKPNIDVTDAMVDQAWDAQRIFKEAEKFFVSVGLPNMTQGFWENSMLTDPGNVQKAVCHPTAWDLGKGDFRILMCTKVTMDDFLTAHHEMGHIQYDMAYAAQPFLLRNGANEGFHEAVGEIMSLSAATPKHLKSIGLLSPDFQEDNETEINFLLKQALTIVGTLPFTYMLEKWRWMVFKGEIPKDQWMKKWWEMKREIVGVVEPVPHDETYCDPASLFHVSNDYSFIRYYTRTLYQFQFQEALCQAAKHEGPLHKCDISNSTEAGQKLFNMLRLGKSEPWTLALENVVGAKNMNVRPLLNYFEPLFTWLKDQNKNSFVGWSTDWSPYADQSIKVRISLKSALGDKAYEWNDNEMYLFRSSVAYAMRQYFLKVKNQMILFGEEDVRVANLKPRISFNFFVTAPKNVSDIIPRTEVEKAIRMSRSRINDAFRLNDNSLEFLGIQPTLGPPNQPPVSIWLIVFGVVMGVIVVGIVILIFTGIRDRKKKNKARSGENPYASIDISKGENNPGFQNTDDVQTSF
molecule,measurement,setting,value
S=c1[nH]cnc2nc[nH]c12 [mercaptopurine],ACE2 blocking,[1],identified to block ACE2
Cc1cc(O)c2c(c1)C(=O)c1cc(O)cc(O)c1C2=O [emodin],ACE2 blocking,[1],identified to block ACE2
KKKKKKDKFNHEAEDLFY [AYn1],protein-peptide interaction in pull-down,[2],no protein signal was detected in negative and blank control lanes
same,pseudovirus infection / luciferin luminance,[3],relatively weaker impact on pseudovirus infection; also recorded: ameliorated; also recorded: failed to prevent pseudovirus infection in vivo
same,koff,[4],0.001 s⁻¹
same,kon,[4],10500 M⁻¹ s⁻¹
same,luciferase IHC staining in lungs,[5],significantly ameliorated
same,pseudovirus content in lungs (119 bp S-protein band),[6],relative weak therapeutic effect
same,cytotoxicity,[7],no significant cytotoxicity
same,cytotoxicity (general statement),[7],no cytotoxicity
same,distribution in livers and kidneys,[8],not in the kidneys and livers
same,distribution in lungs and small intestine,[8],preferentially distributed in the lungs and intestine
COc1ccc2[nH]cc(CCNC(C)=O)c2c1 [melatonin],ACE2 blocking,[1],identified to block ACE2
CN(C)CCOc1ccc(/C(=C(/CCCl)c2ccccc2)c2ccccc2)cc1 [toremifene],ACE2 blocking,[1],identified to block ACE2
